# Test results as given in EPA's ToxValDB 9.5 (doi:10.2903/j.efsa.2020.6227).
# Assays:
# [1] = test system: Anas platyrhynchos; conditions: oral
# [2] = test system: Daphnia magna; conditions: chronic/long-term; duration: 21 days
# [3] = test system: Tagia sp.; conditions: chronic/long-term; duration: 56 days; reproduction
# [4] = test system: Folsomia candida; conditions: chronic/long-term; duration: 28 days; reproduction
# [5] = test system: Neomysis kadiakensis; conditions: acute; duration: 96 hours; mortality
# [6] = test system: Apis mellifera; conditions: acute, duration: 24 hours, mortality
# [7] = test system: Bibionidae; conditions: chronic/long-term; duration: 28 days
# [8] = test system: Rattus norvegicus
# [9] = test system: Oncorhynchus mykiss
smiles,measurement,setting,value
CC[C@H](C)[C@H]1O[C@]2(C=C[C@@H]1C)C[C@@H]1C[C@@H](C/C=C(\C)[C@@H](O[C@H]3C[C@H](OC)[C@@H](O[C@H]4C[C@H](OC)[C@@H](O)[C@H](C)O4)[C@H](C)O3)[C@@H](C)/C=C/C=C3\CO[C@@H]4[C@H](O)C(C)=C[C@@H](C(=O)O1)[C@]34O)O2.CO[C@H]1C[C@H](O[C@H]2[C@H](C)O[C@@H](O[C@@H]3/C(C)=C/C[C@@H]4C[C@@H](C[C@]5(C=C[C@H](C)[C@@H](C(C)C)O5)O4)OC(=O)[C@@H]4C=C(C)[C@@H](O)[C@H]5OC/C(=C\C=C\[C@@H]3C)[C@]54O)C[C@@H]2OC)O[C@@H](C)[C@@H]1O [Abamectin],LD50,"[1]; acute, unspecified, mortality",26 mg/kg-day
same,NOEC,"[1]; reproductive, feed",6 mg/kg
same,NOEC,[2],0.0067 µg/L
same,NOEC,[3],< 0.036 mg/kg
same,NOEC,[4],0.04 mg/kg
same,LC50,[5],0.02 ng/mL
same,LD50,[6]; dermal,0.001 µg/piece
same,LD50,"[6]; oral, unspecified",0.004 µg/piece
same,NOEC,[7],3.3 µg/kg
same,LD50,"[8]; acute, oral, M, mortality",8.7 mg/kg-day
same,NOAEL,"[8]; developmental, development",0.12 mg/kg-day
same,LC50,"[9]; acute, duration: 96 hours, mortality",2.5 ng/mL
same,NOEC,"[9]; chronic/long-term, duration: 72 days",0.52 µg/L
